Assay results published in BigSolDB 2.1.

SMILES: O=C(O)CCCCCCCC(=O)O
- solubility (mole fraction) (in acetic acid, 289.05 K): 0.022
- solubility (mole fraction) (in acetic acid, 293.95 K): 0.0279
- solubility (mole fraction) (in acetic acid, 298.85 K): 0.0355
- solubility (mole fraction) (in acetic acid, 303.45 K): 0.0452
- solubility (mole fraction) (in acetic acid, 308.35 K): 0.0582
- solubility (mole fraction) (in acetic acid, 313.35 K): 0.0746
- solubility (mole fraction) (in acetic acid, 318.85 K): 0.0964
- solubility (mole fraction) (in acetic acid, 325.35 K): 0.132
- solubility (mole fraction) (in acetic acid, 330.95 K): 0.169
- solubility (mole fraction) (in acetic acid, 337.35 K): 0.223
- solubility (mole fraction) (in acetic acid, 341.75 K): 0.265
- solubility (mole fraction) (in acetone, 276.65 K): 0.00895
- solubility (mole fraction) (in acetone, 279.45 K): 0.0103
- solubility (mole fraction) (in acetone, 283.15 K): 0.0129
- solubility (mole fraction) (in acetone, 286.95 K): 0.0158
- solubility (mole fraction) (in acetone, 294.15 K): 0.0228
- solubility (mole fraction) (in acetone, 297.55 K): 0.0275
- solubility (mole fraction) (in acetone, 303.05 K): 0.0365
- solubility (mole fraction) (in acetone, 306.55 K): 0.0438
- solubility (mole fraction) (in acetone, 312.05 K): 0.0587
- solubility (mole fraction) (in acetone, 316.15 K): 0.0732
- solubility (mole fraction) (in acetone, 320.95 K): 0.1
- solubility (mole fraction) (in acetone, 325.35 K): 0.12
- solubility (mole fraction) (in ethanol, 276.75 K): 0.0212
- solubility (mole fraction) (in ethanol, 280.05 K): 0.0253
- solubility (mole fraction) (in ethanol, 283.25 K): 0.0292
- solubility (mole fraction) (in ethanol, 288.15 K): 0.0362
- solubility (mole fraction) (in ethanol, 293.05 K): 0.0449
- solubility (mole fraction) (in ethanol, 297.55 K): 0.0546
- solubility (mole fraction) (in ethanol, 304.05 K): 0.069
- solubility (mole fraction) (in ethanol, 307.35 K): 0.083
- solubility (mole fraction) (in ethanol, 312.05 K): 0.0969
- solubility (mole fraction) (in ethanol, 317.05 K): 0.117
- solubility (mole fraction) (in ethanol, 322.05 K): 0.143
- solubility (mole fraction) (in ethanol, 326.85 K): 0.166
- solubility (mole fraction) (in ethanol, 332.05 K): 0.202
- solubility (mole fraction) (in ethanol, 336.55 K): 0.234
- solubility (mole fraction) (in ethylene glycol, 278.65 K): 0.0083
- solubility (mole fraction) (in ethylene glycol, 283.35 K): 0.01
- solubility (mole fraction) (in ethylene glycol, 288.05 K): 0.0105
- solubility (mole fraction) (in ethylene glycol, 292.85 K): 0.0144
- solubility (mole fraction) (in ethylene glycol, 297.35 K): 0.0241
- solubility (mole fraction) (in ethylene glycol, 303.35 K): 0.03
- solubility (mole fraction) (in ethylene glycol, 307.35 K): 0.0395
- solubility (mole fraction) (in ethylene glycol, 312.25 K): 0.0496
- solubility (mole fraction) (in ethylene glycol, 317.05 K): 0.0622
- solubility (mole fraction) (in ethylene glycol, 321.55 K): 0.0791
- solubility (mole fraction) (in ethylene glycol, 326.45 K): 0.103
- solubility (mole fraction) (in ethylene glycol, 331.35 K): 0.131
- solubility (mole fraction) (in ethylene glycol, 336.15 K): 0.167
